Results as given in patent publication US9029391B2 (priority 2011, dated 2015).

test system: HIV; assay: MT4 Assay (anti-HIV activity); assay type: cell-based; conditions: Human immunodeficiency virus 1, 96 h, read-out: HIV MT4 Assay IC50, HTLV-1 transformed cell line MT-4, cell titer glo, 10 point dose response curve
Protocol: Antiviral HIV activity and cytotoxicity values for compounds of the invention from Table 1 were measured in parallel in the HTLV-1 transformed cell line MT-4 based on the method previously described (Hazen et al., 2007, In vitro antiviral activity of the novel, tyrosyl-based human immunodeficiency virus (HIV) type 1 protease inhibitor brecanavir (GW640385) in combination with other antiretrovirals and against a panel of protease inhibitor-resistant HIV (Hazen et al., “In vitro antiviral activity of the novel, tyrosyl-based human immunodeficiency virus (HIV) type 1 protease inhibitor brecanavir (GW640385) in combination with other antiretrovirals and against a panel of protease inhibitor-resistant HIV”, Antimicrob. Agents Chemother. 2007, 51: 3147-3154; and Pauwels et al., “Sensitive and rapid assay on MT-4 cells for the detection of antiviral compounds against the AIDS virus”, J. of Virological Methods 1987, 16: 171-185).
Luciferase activity was measured 96 hours later by adding a cell titer glo (Promega, Madison, Wis.). Percent inhibition of cell protection data was plotted relative to no compound control. Under the same condition, cytotoxicity of the compounds was determined using cell titer glo (Promega, Madison, Wis.). IC50s were determined from a 10 point dose response curve using 3-4-fold serial dilution for each compound, which spans a concentration range >1000 fold.

| Compound | IC50 [µM] |
| --- | --- |
| Cc1c(-c2c([C@H](OC(C)(C)C)C(=O)O)n(C)c(=O)c3cc(-c4ccc(F)cc4)ccc23)cc(F)c2c1CCCO2 (atropisomer, axis not shown; (M)) [Example 209, (S)(M)-2-(tert-butoxy)-2-(4-(8-fluoro-5-methylchroman-6-yl)-7-(4-fluorophenyl)-2-methyl-1-oxo-1,2-dihydroisoquinolin-3-yl)acetic acid] | 0.02 |
| Cc1c(-c2c([C@H](OC(C)(C)C)C(=O)O)n(C)c(=O)c3cc(-c4cccc(F)c4)ccc23)cc(F)c2c1CCCO2 (atropisomer, axis not shown; (M)) [Example 210, (S)(M)-2-(tert-butoxy)-2-(4-(8-fluoro-5-methylchroman-6-yl)-7-(3-fluorophenyl)-2-methyl-1-oxo-1,2-dihydroisoquinolin-3-yl)acetic acid] | 0.01 |
| Cc1c(-c2c([C@H](OC(C)(C)C)C(=O)O)n(C)c(=O)c3cc(-c4ccccc4F)ccc23)cc(F)c2c1CCCO2 (atropisomer, axis not shown; (M)) [Example 211, (S)(M)-2-(tert-butoxy)-2-(4-(8-fluoro-5-methylchroman-6-yl)-7-(2-fluorophenyl)-2-methyl-1-oxo-1,2-dihydroisoquinolin-3-yl)acetic acid] | 0.02 |
| Cc1c(-c2c([C@H](OC(C)(C)C)C(=O)NO)n(C)c(=O)c3ccccc23)cc(F)c2c1CCCO2 (atropisomer, axis not shown; (M)) [Example 213, (S)(M)-2-(tert-butoxy)-2-(4-(8-fluoro-5-methylchroman-6-yl)-2-methyl-1-oxo-1,2-dihydroisoquinolin-3-yl)-N-hydroxyacetamide] | 5.25 |
| Cc1c(-c2c([C@H](OC(C)(C)C)C(=O)N(C)O)n(C)c(=O)c3ccccc23)cc(F)c2c1CCCO2 (atropisomer, axis not shown; (M)) [Example 214, (S)(M)-2-(tert-butoxy)-2-(4-(8-fluoro-5-methylchroman-6-yl)-2-methyl-1-oxo-1,2-dihydroisoquinolin-3-yl)-N-hydroxy-N-methylacetamide] | 4.84 |
| Cc1c(-c2c([C@H](OC(C)(C)C)C(=O)NS(C)(=O)=O)n(C)c(=O)c3ccccc23)cc(F)c2c1CCCO2 (atropisomer, axis not shown; (M)) [Example 215, (2S)(M)-2-[(1,1-dimethylethyl)oxy]-2-[4-(8-fluoro-5-methyl-3,4-dihydro-2H-chromen-6-yl)-2-methyl-1-oxo-1,2-dihydro-3-isoquinolinyl]-N-(methylsulfonyl)ethanamide] | 11.1 |
| COc1c(C)cc(-c2c(C(OC(C)(C)C)C(=O)O)n(C)c(=O)c3ccccc23)cc1C (centres unmarked) [Example 1, tert-Butoxy-[4-(4-methoxy-3,5-dimethyl-phenyl)-2-methyl-1-oxo-1,2-dihydro-isoquinolin-3-yl]-acetic acid] | 6.59 |
| Cc1ccc(-c2c([C@H](OC(C)(C)C)C(=O)O)n(C)c(=O)c3ccccc23)cc1C [Example 3, (S)-2-(tert-butoxy)-2-(4-(3,4-dimethylphenyl)-2-methyl-1-oxo-1,2-dihydroisoquinolin-3-yl)acetic acid] | 0.44 |
| Cc1c(-c2c(C(OC(C)(C)C)C(=O)O)n(C)c(=O)c3cc(OCCO)ccc23)ccc2c1CCCO2 (centres unmarked) [Example 4, tert-Butoxy-[7-(2-hydroxy-ethoxy)-2-methyl-4-(5-methyl-chroman-6-yl)-1-oxo-1,2-dihydro-isoquinolin-3-yl]-acetic acid] | 3.7 |
| Cn1c(C(OC(C)(C)C)C(=O)O)c(-c2ccc(OC(F)(F)F)cc2)c2ccccc2c1=O (centres unmarked) [Example 5, 2-(tert-butoxy)-2-{2-methyl-1-oxo-4-[4-(trifluoromethoxy)phenyl]-1,2-dihydroisoquinolin-3-yl}acetic acid] | 41.7 |
| Cn1c(C(OC(C)(C)C)C(=O)O)c(-c2cc(F)cc(F)c2)c2ccccc2c1=O (centres unmarked) [Example 6, 2-(tert-butoxy)-2-[4-(3,5-difluorophenyl)-2-methyl-1-oxo-1,2-dihydroisoquinolin-3-yl]acetic acid] | 10.6 |
